Where two headings read alike, the source gives them in different places.
Experiments:
Experiment in all cases: Test A pre-/postemergence plant response
Type in all cases: in vivo
[1] = system: pigweed (Amaranthus retroflexus); details: Amaranthus retroflexus, 240 h, read-out: Plant response rating, Pigweed; for pest or weed control at 31 g/ha: 31 g ai/ha; for pest or weed control at 125 g/ha: 125 g ai/ha; for pest or weed control at 500 g/ha: 500 g ai/ha
How it was run: (§1)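 Ratings are visual, 0–100, where 100 means complete control and 0 no effect, taken roughly 10 days after treatment by comparison with untreated controls. Formulation: non-phytotoxic solvent mixture with surfactant.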

[2] = system: giant foxtail (Setaria faberi); details: Setaria faberi, 240 h, read-out: Plant response rating, Foxtail, Giant; for pest or weed control at 31 g/ha: 31 g ai/ha; for pest or weed control at 125 g/ha: 125 g ai/ha; for pest or weed control at 500 g/ha: 500 g ai/ha
How it was run: as §1

[3] = system: wheat (Triticum aestivum); details: Triticum aestivum, 240 h, read-out: Plant response rating, Wheat; for plant injury at 31 g/ha: 31 g ai/ha; for plant injury at 125 g/ha: 125 g ai/ha; for plant injury at 500 g/ha: 500 g ai/ha
How it was run: as §1

corn (Zea mays) = details: Zea mays, 240 h; for Corn plant response rating (crop injury, 0 = no effect, 100 = complete kill) at 31 g/ha: 31 g ai/ha; for Corn plant response rating (crop injury, 0 = no effect, 100 = complete kill) at 125 g/ha: 125 g ai/ha; for Corn plant response rating (crop injury, 0 = no effect, 100 = complete kill) at 500 g/ha: 500 g ai/ha
How it was run: as §1

[4] = system: large crabgrass (Digitaria sanguinalis); details: Digitaria sanguinalis, 240 h, read-out: Plant response rating, Crabgrass, Large; for pest or weed control at 31 g/ha: 31 g ai/ha; for pest or weed control at 125 g/ha: 125 g ai/ha; for pest or weed control at 500 g/ha: 500 g ai/ha
How it was run: as §1

[5] = system: barnyardgrass (Echinochloa crus-galli); details: Echinochloa crus-galli, 240 h, read-out: Plant response rating, Barnyardgrass; for pest or weed control at 31 g/ha: 31 g ai/ha; for pest or weed control at 125 g/ha: 125 g ai/ha; for pest or weed control at 500 g/ha: 500 g ai/ha
How it was run: as §1

[6] = post-emergence, Postemergence, 0 to 100 scale (0 no effect, 100 complete control)
[7] = post-emergence, Postemergence, 0 to 100 scale, 0 no effect, 100 complete control
[8] = pre-emergence, Preemergence, 0 to 100 scale, 0 is no effect, 100 is complete control
[9] = pre-emergence, Preemergence, 0 to 100 scale (0 no effect, 100 complete control)

Cn1ncc(O)c(-c2nn(-c3ccc(C(F)(F)F)cc3)cc2Br)c1=O [Compound 87, 4-[4-bromo-1-[4-(trifluoromethyl)phenyl]-1H-pyrazol-3-yl]-5-hydroxy-2-methyl-3(2H)-pyridazinone]
pest or weed control at 31 g/ha [1, 6]: 0% | pest or weed control at 125 g/ha [1, 7]: 0% | pest or weed control at 31 g/ha [1, 8]: 0% | pest or weed control at 125 g/ha [1, 9]: 0% | pest or weed control at 31 g/ha [2, 6]: 20% | pest or weed control at 125 g/ha [2, 7]: 80% | pest or weed control at 31 g/ha [2, 8]: 20% | pest or weed control at 125 g/ha [2, 9]: 90% | plant injury at 31 g/ha [3, 6]: 20% | plant injury at 125 g/ha [3, 7]: 50% | plant injury at 31 g/ha [3, 8]: 0% | plant injury at 125 g/ha [3, 9]: 20% | Corn plant response rating (crop injury, 0 = no effect, 100 = complete kill) at 31 g/ha (corn (Zea mays); [6]): 0% | Corn plant response rating (crop injury, 0 = no effect, 100 = complete kill) at 125 g/ha (corn (Zea mays); [7]): 40% | Corn plant response rating (crop injury, 0 = no effect, 100 = complete kill) at 31 g/ha (corn (Zea mays); [8]): 0% | Corn plant response rating (crop injury, 0 = no effect, 100 = complete kill) at 125 g/ha (corn (Zea mays); [9]): 20% | pest or weed control at 31 g/ha [4, 6]: 10% | pest or weed control at 125 g/ha [4, 7]: 80% | pest or weed control at 31 g/ha [4, 8]: 20% | pest or weed control at 125 g/ha [4, 9]: 70% | pest or weed control at 31 g/ha [5, 6]: 0% | pest or weed control at 125 g/ha [5, 7]: 90% | pest or weed control at 31 g/ha [5, 8]: 0% | pest or weed control at 125 g/ha [5, 9]: 50%

Cc1cn(-c2ccc(C(F)(F)F)cc2)nc1-c1c(O)cnn(C)c1=O [Compound 85, 5-hydroxy-2-methyl-4-[4-methyl-1-[4-(trifluoromethyl)phenyl]-1H-pyrazol-3-yl]-3(2H)-pyridazinone]
pest or weed control at 31 g/ha [1, 6]: 0% | pest or weed control at 125 g/ha [1, 7]: 0% | pest or weed control at 31 g/ha [1, 8]: 0% | pest or weed control at 125 g/ha [1, 9]: 0% | pest or weed control at 31 g/ha [2, 6]: 0% | pest or weed control at 125 g/ha [2, 7]: 60% | pest or weed control at 31 g/ha [2, 8]: 0% | pest or weed control at 125 g/ha [2, 9]: 100% | plant injury at 31 g/ha [3, 6]: 0% | plant injury at 125 g/ha [3, 7]: 20% | plant injury at 31 g/ha [3, 8]: 0% | plant injury at 125 g/ha [3, 9]: 20% | Corn plant response rating (crop injury, 0 = no effect, 100 = complete kill) at 31 g/ha (corn (Zea mays); [6]): 0% | Corn plant response rating (crop injury, 0 = no effect, 100 = complete kill) at 125 g/ha (corn (Zea mays); [7]): 0% | Corn plant response rating (crop injury, 0 = no effect, 100 = complete kill) at 31 g/ha (corn (Zea mays); [8]): 0% | Corn plant response rating (crop injury, 0 = no effect, 100 = complete kill) at 125 g/ha (corn (Zea mays); [9]): 0% | pest or weed control at 31 g/ha [4, 6]: 0% | pest or weed control at 125 g/ha [4, 7]: 40% | pest or weed control at 31 g/ha [4, 8]: 10% | pest or weed control at 125 g/ha [4, 9]: 70% | pest or weed control at 31 g/ha [5, 6]: 0% | pest or weed control at 125 g/ha [5, 7]: 30% | pest or weed control at 31 g/ha [5, 8]: 0% | pest or weed control at 125 g/ha [5, 9]: 40%

Cc1cc(-c2ccc(Br)cc2)nn1-c1c(O)cnn(C2CCCCO2)c1=O (stereo not drawn) [Compound 77, 4-[3-(4-bromophenyl)-5-methyl-1H-pyrazol-1-yl]-5-hydroxy-2-(tetrahydro-2H-pyran-2-yl)-3(2H)-pyridazinone]
pest or weed control at 125 g/ha [1, 7]: 0% | pest or weed control at 500 g/ha [1, 7]: 0% | pest or weed control at 125 g/ha [1, 9]: 0% | pest or weed control at 500 g/ha [1, 9]: 0% | pest or weed control at 125 g/ha [2, 7]: 80% | pest or weed control at 500 g/ha [2, 7]: 100% | pest or weed control at 125 g/ha [2, 9]: 30% | pest or weed control at 500 g/ha [2, 9]: 100% | plant injury at 125 g/ha [3, 7]: 70% | plant injury at 500 g/ha [3, 7]: 90% | plant injury at 125 g/ha [3, 9]: 0% | plant injury at 500 g/ha [3, 9]: 80% | Corn plant response rating (crop injury, 0 = no effect, 100 = complete kill) at 125 g/ha (corn (Zea mays); [7]): 80% | Corn plant response rating (crop injury, 0 = no effect, 100 = complete kill) at 500 g/ha (corn (Zea mays); [7]): 100% | Corn plant response rating (crop injury, 0 = no effect, 100 = complete kill) at 125 g/ha (corn (Zea mays); [9]): 30% | Corn plant response rating (crop injury, 0 = no effect, 100 = complete kill) at 500 g/ha (corn (Zea mays); [9]): 80% | pest or weed control at 125 g/ha [4, 7]: 70% | pest or weed control at 500 g/ha [4, 7]: 100% | pest or weed control at 125 g/ha [4, 9]: 10% | pest or weed control at 500 g/ha [4, 9]: 100% | pest or weed control at 125 g/ha [5, 7]: 50% | pest or weed control at 500 g/ha [5, 7]: 100% | pest or weed control at 125 g/ha [5, 9]: 0% | pest or weed control at 500 g/ha [5, 9]: 100%

Reference: patent US20100267561A1, “HERBICIDAL PYRIDAZINONE DERIVATIVES” (priority 2007, published 2010)
